Results published in patent publication US20200385371A1 (Propellon Therapeutics Inc., priority 2017, published 2020).

Tests used:
MV4-11 cells = assay: Cell proliferation assay (ATPlite); type: cell-based; conditions: Homo sapiens, 120 h; MV4-11 cells, five days; read-out: GI MV411 EC50
Description: MV4-11 cells were seeded into a 96-well plate at 1,000 cells/well in 150 μl medium (Alpha-MEM containing 10% FBS, 100 μg/ml Normocin, and 50 μg/ml Gentamycin, Invitrogen). A HP D300 digital dispenser was used to dose cells with DMSO or test compounds across a 10-point range of concentrations (high dose of 10 μM), and cultures were grown in a humidified 5% CO2 incubator at 37° C. After five days, plates were removed from incubator and equilibrated to room temperature. An equal volume of ATPlite assay reagent was added to each well, and samples were processed according to manufacturer's instructions (Perkin Elmer). Luminescent signal was measured using an Envision plate reader equipped with a US-Luminescence detector.

WDR5 [1] = biological target: T1, WDR5 (Homo sapiens, UniProt P61964); assay: Fluorescence Polarization (FP) binding assay
In short: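 Displacement of fluorescein-labelled H3 (1-15) (30 nM, with 0.3 μM WDR5) or 9-Ala-FAM (20 nM, with 0.05 μM WDR5) in 80 mM sodium phosphate pH 6.5, 20 mM KCl, 0.008% Triton X-100. FP read at 485/528 nm (H3) or 480/540 nm (9-Ala-FAM); Kdisp from hyperbolic fit, mean of quadruplicates.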

WDR5 [2] = biological target: T1, WDR5; assay: Surface Plasmon Resonance (SPR) assay; type: binding; set-up: Full length WDR5 with an N-terminal His tag and C-terminal AviTag; His tag (N); made in house; host or cells: E. coli; conditions: read-out: SPR Kd
In short: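 Full-length biotinylated WDR5 (N-His, C-AviTag, E. coli) captured (~3000 RU) on streptavidin SA chip; Biacore T200. HBS-EP pH 7.4 plus 5% DMSO running buffer, 40 μl/min.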

| Compound | EC50 (MV4-11 cells) [nM] | IC50 (WDR5 [1]) [nM] | Kd (WDR5 [2]) [nM] |
| --- | --- | --- | --- |
| C[C@@H]1CN(c2ncc(-c3c(F)cc(N4CCN(C)[C@@H](C)C4)c(NC(=O)c4c[nH]c(=O)cc4C(F)F)c3F)cn2)CCO1 [Example 129, 4-(Difluoromethyl)-N-(6-((S)-3,4-dimethylpiperazin-1-yl)-2,4-difluoro-3-(2-((R)-2-methylmorpholino)pyrimidin-5-yl)phenyl)-6-oxo-1,6-dihydropyridine-3-carboxamide] | 13.5 | 8.79 | 0.34 |
| C[C@@H]1CN(c2nccc(-c3c(F)cc(N4CCN(C)[C@@H](C)C4)c(NC(=O)c4cn(C)c(=O)cc4C(F)F)c3F)n2)C[C@H](C)O1 [Example 57, 4-(Difluoromethyl)-N-(3-(2-((2S,6R)-2,6-dimethylmorpholino)pyrimidin-4-yl)-6-((S)-3,4-dimethylpiperazin-1-yl)-2,4-difluorophenyl)-1-methyl-6-oxo-1,6-dihydropyridine-3-carboxamide] | 367 | 26.8 | 7.63 |
| CC(C)OC(=O)N1CC=C(c2c(F)cc(N3CCN(C)[C@@H](C)C3)c(NC(=O)c3c[nH]c(=O)cc3C(F)F)c2F)C1 [Example 36, Isopropyl (S)-3-(3-(4-(difluoromethyl)-6-oxo-1,6-dihydropyridine-3-carboxamido)-4-(3,4-dimethylpiperazin-1-yl)-2,6-difluorophenyl)-2,5-dihydro-H-pyrrole-1-carboxylate] | 54.5 | 13.2 | 1.04 |
| C[C@@H]1CN(c2cc(F)c(-c3cnc(N4CCO[C@@H](C)C4)nc3)c(F)c2NC(=O)c2c[nH]c(=O)cc2C(F)F)C[C@H](C)N1C [Example 125, N-(2,4-difluoro-3-(2-((S)-2-methylmorpholino)pyrimidin-5-yl)-6-((3S,5R)-3,4,5-trimethylpiperazin-1-yl)phenyl)-4-(difluoromethyl)-6-oxo-1,6-dihydropyridine-3-carboxamide] | 19.4 | 11.9 | 0.69 |
| C[C@@H]1CN(c2ncc(-c3c(F)cc(N4CCN(C)[C@@H](C)C4)c(NC(=O)c4ccc(F)cc4C(F)(F)F)c3F)cn2)C[C@H](C)O1 [Example 66, N-(3-(2-((2S,6R)-2,6-dimethylmorpholino)pyrimidin-5-yl)-6-((S)-3,4-dimethylpiperazin-1-yl)-2,4-difluorophenyl)-4-fluoro-2-(trifluoromethyl)benzamide Formic Acid] | 45.8 | 14.1 | 2.02 |
| C[C@@H]1CN(c2cc(F)c(-c3ccc(N4CCOCC4)c(F)c3)c(F)c2NC(=O)c2c[nH]c(=O)cc2C(F)(F)F)C[C@H](C)N1C [Example 9, 6-Oxo-N-(2,3′,6-trifluoro-4′-morpholino-4-((3S,5R)-3,4,5-trimethylpiperazin-1-yl)-[1,1′-biphenyl]-3-yl)-4-(trifluoromethyl)-1,6-dihydropyridine-3-carboxamide] | 123 | 15.3 | 1.33 |
| COc1cc(N2CCC=C(c3c(F)cc(N4CCN(C)[C@@H](C)C4)c(NC(=O)c4c[nH]c(=O)cc4C(F)F)c3F)C2)ncn1 [Example 79, (S)-4-(difluoromethyl)-N-(6-(3,4-dimethylpiperazin-1-yl)-2,4-difluoro-3-(1-(6-methoxypyrimidin-4-yl)-1,2,5,6-tetrahydropyridin-3-yl)phenyl)-6-oxo-1,6-dihydropyridine-3-carboxamide] | 223 | 13.6 | 1.67 |
| COc1cc(N2CC=C(c3c(F)cc(N4CCN(C)[C@@H](C)C4)c(NC(=O)c4c[nH]c(=O)cc4C(F)(F)F)c3F)CC2)ncn1 [Example 76, (S)—N-(6-(3,4-dimethylpiperazin-1-yl)-2,4-difluoro-3-(1-(6-methoxypyrimidin-4-yl)-1,2,3,6-tetrahydropyridin-4-yl)phenyl)-6-oxo-4-(trifluoromethyl)-1,6-dihydropyridine-3-carboxamide] | 42 | 21.6 | 1.42 |
| C[C@H]1CN(c2cc(F)c(C3=CCN(c4ncc(C#N)s4)CC3)c(F)c2NC(=O)c2c[nH]c(=O)cc2C(F)F)CCN1C [Example 97, (S)—N-(3-(1-(5-cyanothiazol-2-yl)-1,2,3,6-tetrahydropyridin-4-yl)-6-(3,4-dimethylpiperazin-1-yl)-2,4-difluorophenyl)-4-(difluoromethyl)-6-oxo-1,6-dihydropyridine-3-carboxamide] | 138 | 13.6 | 0.78 |
| COc1cc(N2CC=C(c3c(F)cc(N4C[C@@H](C)N(C)[C@@H](C)C4)c(NC(=O)c4c[nH]c(=O)cc4C(F)(F)F)c3F)C2)ncn1 [Example 143, N-(2,4-difluoro-3-(1-(6-methoxypyrimidin-4-yl)-2,5-dihydro-1H-pyrrol-3-yl)-6-((3S,5R)-3,4,5-trimethylpiperazin-1-yl)phenyl)-6-oxo-4-(trifluoromethyl)-1,6-dihydropyridine-3-carboxamide] | 17.7 | 14.4 | 0.92 |
| COc1cnc(N2CC=C(c3c(F)cc(N4C[C@@H](C)N(C)[C@@H](C)C4)c(NC(=O)c4c[nH]c(=O)cc4C(F)(F)F)c3F)C2)nc1 [Example 139, N-(2,4-difluoro-3-(1-(5-methoxypyrimidin-2-yl)-2,5-dihydro-1H-pyrrol-3-yl)-6-((3S,5R)-3,4,5-trimethylpiperazin-1-yl)phenyl)-6-oxo-4-(trifluoromethyl)-1,6-dihydropyridine-3-carboxamide] | 18.5 | 12 | 1.65 |
| C[C@H]1CN(c2cc(F)c(C3=CCN(c4ncc(C#N)s4)CC3)c(F)c2NC(=O)c2c[nH]c(=O)cc2C(F)(F)F)CCN1C [Example 98, (S)—N-(3-(1-(5-cyanothiazol-2-yl)-1,2,3,6-tetrahydropyridin-4-yl)-6-(3,4-dimethylpiperazin-1-yl)-2,4-difluorophenyl)-6-oxo-4-(trifluoromethyl)-1,6-dihydropyridine-3-carboxamide] | 97.7 | 13.1 | 0.77 |

Now from value to compound:

| EC50 (MV4-11 cells) [nM] | IC50 (WDR5 [1]) [nM] | Kd (WDR5 [2]) [nM] | Compound |
| --- | --- | --- | --- |
| 14.3 | 11.7 | 0.44 | CC(C)[C@H]1CN(c2ncc(-c3c(F)cc(N4CCN(C)[C@@H](C)C4)c(NC(=O)c4c[nH]c(=O)cc4C(F)(F)F)c3F)cn2)CCO1 [Example 102, N-(6-((S)-3,4-dimethylpiperazin-1-yl)-2,4-difluoro-3-(2-((S)-2-isopropylmorpholino)pyrimidin-5-yl)phenyl)-6-oxo-4-(trifluoromethyl)-1,6-dihydropyridine-3-carboxamide] |
| 198 | 22.4 | 2.51 | C[C@H]1CN(c2cc(F)c(-c3ccc(N4CCOCC4)nc3)c(F)c2NC(=O)c2ccc(F)cc2C(F)F)CCN1C [Example 180, (S)-2-(Difluoromethyl)-N-(6-(3,4-dimethylpiperazin-1-yl)-2,4-difluoro-3-(6-morpholinopyridin-3-yl)phenyl)-4-fluorobenzamide] |
| 83.4 | 15.3 | 1.1 | C[C@H]1CN(c2ncc(-c3c(F)cc(N4CCN(C)[C@@H](C)C4)c(NC(=O)c4cn(C)c(=O)cc4C(F)(F)F)c3F)cn2)C[C@H](C)O1 [Example 163, N-(3-(2-((2S,6S)-2,6-dimethylmorpholino)pyrimidin-5-yl)-6-((S)-3,4-dimethylpiperazin-1-yl)-2,4-difluorophenyl)-1-methyl-6-oxo-4-(trifluoromethyl)-1,6-dihydropyridine-3-carboxamide] |
| 286 | 33 | 5.07 | C[C@@H]1CN(c2nccc(-c3c(F)cc(N4CCN(C)[C@@H](C)C4)c(NC(=O)c4ccc(F)cc4C(F)F)c3F)n2)C[C@H](C)O1 [Example 32, 2-(Difluoromethyl)-N-(3-(2-((2S,6R)-2,6-dimethylmorpholino)pyrimidin-4-yl)-6-((S)-3,4-dimethylpiperazin-1-yl)-2,4-difluorophenyl)-4-fluorobenzamide Formic Acid] |
| 139 | 19.8 | 1.46 | C[C@@H]1CN(c2ccc(-c3c(F)cc(N4CCN(C)[C@@H](C)C4)c(NC(=O)c4ccc(F)cc4C(F)(F)F)c3F)cn2)C[C@H](C)O1 [Example 176, N-(3-(6-((2S,6R)-2,6-dimethylmorpholino)pyridin-3-yl)-6-((S)-3,4-dimethylpiperazin-1-yl)-2,4-difluorophenyl)-4-fluoro-2-(trifluoromethyl)benzamide] |
| 36.8 | 16.6 | 0.87 | C[C@@H]1CN(c2ccc(-c3c(F)cc(N4C[C@@H](C)N(C)[C@@H](C)C4)c(NC(=O)c4c[nH]c(=O)cc4C(F)(F)F)c3F)cn2)CCO1 [Example 168, N-(2,4-difluoro-3-(6-((R)-2-methylmorpholino)pyridin-3-yl)-6-((3S,5R)-3,4,5-trimethylpiperazin-1-yl)phenyl)-6-oxo-4-(trifluoromethyl)-1,6-dihydropyridine-3-carboxamide] |
